These results are taken from ChEMBL document CHEMBL5236550, “Small molecule selenium-containing compounds: Recent development and therapeutic applications” (Eur J Med Chem, 2021).

Experiment [1] concerns Encephalomyocarditis virus. Nature of the experiment: Antiviral activity against Encephalomyocarditis virus infected in A549 cells assessed as viral growth inhibition incubated for 1 hrs. The experiment is classed as functional, organism-based. Particulars: Cardiovirus A, A549, 1 h.
Experiment [2] has as its system Human alphaherpesvirus 1. Briefly: Antiviral activity against Herpes simplex virus 1infected in A549 cells assessed as viral growth inhibition incubated for 1 hrs. Type of experiment: functional.
In experiment [3] the test system is A-375. Briefly: Anticancer activity against human A-375 cells assessed as cell growth inhibition incubated for 72 hrs by MTT assay. The conditions noted are these: A-375, 72 h. Type of experiment: functional, cell-based.
The test system of experiment [4] is HL-60. Nature of the experiment: Anticancer activity against human HL-60 cells assessed as cell growth inhibition incubated for 72 hrs by MTT assay. Particulars: HL-60, 72 h. The experiment is classed as functional, cell-based. (Formazan colour is commonly taken as a measure of viable cells.)
The subject of experiment [5] is SW-620. Briefly: Anticancer activity against human SW620 cells assessed as cell growth inhibition incubated for 72 hrs by MTT assay. The experiment is classed as functional, cell-based. The conditions noted are these: SW-620, 72 h.
For experiment [6], the system named is Plasmodium falciparum. Briefly: […] inhibition incubated for 72 hrs by light microscopic analysis. The experiment is classed as functional, organism-based. Particulars: K-1, 72 h.
In experiment [7] the test system is CNE-2. Nature of the experiment: Anticancer activity against human CNE-2 cells assessed as cell growth inhibition incubated for 72 hrs by MTT assay. Type of experiment: functional, cell-based. The conditions noted are these: CNE-2, 72 h.
For experiment [8], the system named is MDA-MB-231. Nature of the experiment: Anticancer activity against human MDA-MB-231 cells assessed as cell growth inhibition incubated for 72 hrs by MTT assay. Type of experiment: functional, cell-based. Particulars: MDA-MB-231, 72 h.
Experiment [9] relates to MCF7. Briefly: Anticancer activity against human MCF7 cells assessed as cell growth inhibition incubated for 72 hrs by MTT assay. Type of experiment: functional, cell-based. The conditions noted are these: MCF7, 72 h.
The subject of experiment [10] is Trypanosoma cruzi. Nature of the experiment: Antibacterial activity against Trypanosoma cruzi Dm28c assessed as inhibition of bacterial growth incubated for 72 hrs by microplate reader analysis. The experiment is classed as functional, organism-based.
Experiment [11] can be described thus: Anticancer activity against human PMNL assessed as cell growth inhibition incubated for 5 mins by luminescence reader analysis. The experiment is classed as functional, cell-based.
For experiment [12], the system named is WM-115. Nature of the experiment: Anticancer activity against human WM-115 cells assessed as cell growth inhibition incubated for 72 hrs by MTT assay. The experiment is classed as functional.
Experiment [13] has as its system Pichia kudriavzevii. Nature of the experiment: Antifungal activity against Candida krusei assessed as fungal growth inhibition incubated for 24 to 48 hrs by microdilution method. Particulars: time 24-48 hrs. The experiment is classed as functional.
A short description of experiment [14]: Anticancer activity against human Ela-myc- cells assessed as cell growth inhibition by crystal violet staining based assay. Type of experiment: functional. The conditions noted are these: Ela-myc-1 cell.
Experiment [15] concerns MCF7. Nature of the experiment: Anticancer activity against human MCF7 cells assessed as cell growth inhibition. The experiment is classed as functional, cell-based.
Experiment [16] deals with PANC-1. Briefly: Anticancer activity against human PANC-1 cells assessed as cell growth inhibition by crystal violet staining based assay. The experiment is classed as functional.
Experiment [17] deals with PC-3. Nature of the experiment: Anticancer activity against human PC-3 cells assessed as cell growth incubation incubated for 72 hrs by MTT assay. Type of experiment: functional, cell-based. The conditions noted are these: PC-3, 72 h.
For experiment [18], the system named is SH-SY5Y. Briefly: Anticancer activity against human SH-SY5Y cells assessed as cell viability incubated for 24 hrs by MTT assay relative to control. The experiment is classed as functional.
The test system of experiment [19] is Candida albicans. Nature of the experiment: Antifungal activity against Candida albicans ATC90028 assessed as […] growth inhibition. Type of experiment: functional.
Experiment [20] relates to Candida albicans. Briefly: Antifungal activity against Candida albicans ATC90028 assessed as zone of inhibition. The experiment is classed as functional.
Experiment [21] in a line: Anticancer activity against human PMNL assessed as cell growth inhibition. Type of experiment: functional, cell-based.
The subject of experiment [22] is MCF7. Briefly: Anticancer activity against human MCF7 cells assessed as cell growth incubation incubated for 72 hrs by MTT assay. Type of experiment: functional, cell-based. The conditions noted are these: MCF7, 72 h.
Experiment [23] concerns PC-3. Nature of the experiment: Anticancer activity against human PC-3 cells assessed as cell growth inhibition incubated for 72 hrs by MTT assay. Type of experiment: functional, cell-based. The conditions noted are these: PC-3, 72 h.
Experiment [24] has as its system BGC-823. Nature of the experiment: Anticancer activity against human BGC-823 cells assessed as cell growth inhibition incubated for 72 hrs by MTT assay. Type of experiment: functional, cell-based. The conditions noted are these: BGC-823, 72 h.
Experiment [25] has as its system Caco-2. Nature of the experiment: Anticancer activity against human Caco-2 cells assessed as cell growth inhibition incubated for 72 hrs by MTT assay. Type of experiment: functional, cell-based. The conditions noted are these: Caco-2, 72 h.
Experiment [26] deals with Hs68. Nature of the experiment: Anticancer activity against human Hs68 cells assessed as cell growth inhibition incubated for 72 hrs by MTT assay. Type of experiment: functional, cell-based. Particulars: Hs68, 72 h.
Experiment [27] concerns HeLa. Nature of the experiment: Anticancer activity against human HeLa cells assessed as cell growth inhibition incubated for 48 hrs. Type of experiment: functional, cell-based.
In experiment [28] the test system is LS174T. Briefly: Anticancer activity against human LS174T cells assessed as cell growth inhibition incubated for 48 hrs by MTT assay. The experiment is classed as functional, cell-based.
In experiment [29] the test system is HeLa. Briefly: Anticancer activity against human HeLa cells assessed as cell growth inhibition incubated for 48 hrs by MTT assay. The experiment is classed as functional, cell-based.
Experiment [30] deals with MDA-MB-361. Briefly: Anticancer activity against human MDA-MB-361 cells assessed as cell growth inhibition incubated for 48 hrs by MTT assay. The experiment is classed as functional, cell-based. Particulars: MDA-MB-361, 48 h.
Experiment [31] deals with K562. Briefly: Anticancer activity against human K562 cells assessed as cell growth inhibition incubated for 48 hrs by MTT assay. Type of experiment: functional, cell-based. Particulars: K562, 48 h.

Values after ≈ are worked out from the molar mass of the structure shown.

Broadly, the IC50 is the midpoint of a concentration-inhibition curve.

As to `CCOC(=O)n1[se]c2ccccc2c1=O`, in [1], the half-maximal inhibitory concentration (IC50) turned out to be 10 µg/mL (≈ 37 µM). Moreover, the MIC in [2] was found to be 10 µg/mL (≈ 37 µM).
Regarding `N[C@@H](C[Se][Se]C[C@H](N)C(=O)O)C(=O)O`, the IC50 is 3.6 µM in experiment [3]; 34.5 µM in [4]; 7.3 µM in [5]; 65 µM in experiment [6]; 5.6 µM in experiment [7].
In the case of `Clc1ccc2nc(-c3ccc4n[se]nc4c3)[nH]c2c1`, the IC50 in [8] worked out at 2100 nM; in experiment [9], 26.3 µM.
Take `NC(=[Se])NN=C(c1cccc(Br)c1)c1cccc(Br)c1`: the IC50 in experiment [10] was 1200 nM.
Take `CCN(CC)C(=[Se])c1ccc(Cl)cc1`: in experiment [11], the IC50 worked out at 20.3 µM.
Regarding `N#C[Se]CCCCCC(=O)Nc1ccccc1`, the IC5 in [12] came out at 0.8 µM.
As to `Ic1ccc(-c2c[se]c(NN=C3CCSCC3)n2)cc1`, the MIC in [13] was determined as 0.98 µg/mL (≈ 2.12 µM).
On to `C[Se](=O)O` [METHYLSELENINIC ACID], for which the IC50 in experiment [14] was found to be 3.2 µM; in experiment [15], 2000 nM; in experiment [16] it was 2600 nM; in experiment [6], 10 µM.
As to `N#Cc1ccc(C(=O)[Se]CC(=O)O)cc1`, the IC50 in experiment [17] was 10 µM.
`COc1ccc(-c2c[se]c(NN=C3CCSCC3)n2)cc1`: in experiment [13], the MIC was determined as 3.91 µg/mL (≈ 10.7 µM).
Turning to `O=c1c2ccccc2[se]n1-c1ccccn1`, in experiment [18], the Activity is 84%.
`Cc1ccc(C(=O)C[C@@H](c2ccc(Cl)cc2)[C@@H]2CCCc3[se]nnc32)cc1`: the MIC in experiment [19] was 12.5 µg/mL (≈ 28.2 µM). For the same molecule, the “inhibition zone (IZ)” value in [20] was found to be 17 mm.
In the case of `NC(=[Se])N1CCCC1`, in [21], the IC50 amounted to 6.5 µM.
For `CCCC/C(=N\NC(N)=[Se])c1ccc(Cl)c(Cl)c1`, the IC50 in experiment [10] came out at 1200 nM.
Turning to `O=C(O)C[Se]C(=O)Cc1ccccc1`, the IC50 was determined as 6 nM in experiment [22] and 2.9 µM in experiment [17].
Turning to `O=C(NCCC[Se][Se]CCCNC(=O)c1ccccc1Nc1cccc(C(F)(F)F)c1)c1ccccc1Nc1cccc(C(F)(F)F)c1`, the IC50 in [23] stood at 6.6 µM; in experiment [24] it was 8.3 µM; in [9], 6.8 µM; in [25] it was 3.9 µM.
In the case of `CC(=O)n1[se]c2ccccc2c1=O`, the IC50 in experiment [1] was 6 µg/mL (≈ 25 µM). Also, the MIC in [2] came out at 4 µg/mL (≈ 16.7 µM).
Regarding `[Se]=C(c1ccccc1)N1CCCCC1`, the IC50 in experiment [11] came out at 11.3 µM.
As for `C[Se]C[C@H](N)C(=O)O` [METHYLSELENOCYSTEINE], the IC50 in experiment [3] amounted to 54 µM; in experiment [5] it was 633 µM; in [9] it was 193 µM; in experiment [26] it was 50 µM.
As to `Clc1ccc(-c2c[se]c(NN=C3CCSCC3)n2)cc1`, the MIC in [13] stood at 3.91 µg/mL (≈ 10.5 µM).
Take `Clc1ccccc1C(c1ccccc1)(c1ccccc1)n1ccnc1` [CLOTRIMAZOLE]: in [19], the MIC stood at 6.25 µg/mL (≈ 18.1 µM). In addition, in [20], the “inhibition zone (IZ)” value was 28 mm.
For the molecule `NC(=[Se])N/N=C/c1cccc2cccnc12`, the IC50 in experiment [27] is 6.6 µM; in [28] it was 14.4 µM; in [29], 9.2 µM; in experiment [30], 9.2 µM; in experiment [31] it was 4 µM.
Take `COc1cc(OC)cc(C(=O)[Se]CC(=O)O)c1`: the IC50 in experiment [17] turned out to be 4 µM.
